Data taken from PubChem BioAssay (NCI).
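Following 48 hours of exposure in 96-well plates, responses at five concentrations were used to interpolate endpoints linearly. TGI denotes the concentration required for complete inhibition of growth.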

Key:
Test in all cases: inhibition of tumour cell growth, NCI panel, 48 h
MOLT-4 leukemia = system: MOLT-4 leukemia
HOP-62 NSCLC = system: HOP-62 NSCLC
HCT-15 colon = system: HCT-15 colon
NCI-H23 lung = system: NCI-H23 lung
SN12C renal = system: SN12C renal
786-0 renal = system: 786-0 renal
NCI/ADR-RES ovarian = system: NCI/ADR-RES ovarian
SR leukemia = system: SR leukemia
UACC-62 melanoma = system: UACC-62 melanoma
OVCAR-8 ovarian = system: OVCAR-8 ovarian
SK-MEL-5 melanoma = system: SK-MEL-5 melanoma
A498 renal = system: A498 renal
HL-60(TB) leukemia = system: HL-60(TB) leukemia

Row | Structure (SMILES) | TGI (MOLT-4 leukemia) | TGI (HOP-62 NSCLC) | TGI (HCT-15 colon) | TGI (NCI-H23 lung) | TGI (SN12C renal) | TGI (786-0 renal) | TGI (NCI/ADR-RES ovarian) | TGI (SR leukemia) | TGI (UACC-62 melanoma) | TGI (OVCAR-8 ovarian) | TGI (SK-MEL-5 melanoma) | TGI (A498 renal) | TGI (HL-60(TB) leukemia)
1 | O=C1C=Cc2c1csc2Br | 54.7 µM | > 100 µM | > 100 µM | > 100 µM | > 100 µM | > 100 µM | > 100 µM | 22.7 µM | > 100 µM | > 100 µM | > 100 µM |  | 
2 | Cc1ccc(S(=O)(=O)C(C#N)c2nc3ccccc3nc2N2CCOCC2)cc1 (stereo not drawn) | 58.7 µM | 44.6 µM | > 100 µM | 55.1 µM | 96.4 µM | > 100 µM |  | > 100 µM | 28.5 µM |  | > 100 µM | > 100 µM | 
3 | Cc1cc(CN(Cc2ccccc2)Cc2nc3ccccc3[nH]2)c(O)c(CN(Cc2nc3ccccc3[nH]2)Cc2nc3ccccc3[nH]2)c1 | 42.1 µM | 35.3 µM | > 23.1 µM | > 79.5 µM | > 100 µM | 73.4 µM | 35.9 µM | > 25.3 µM | 18.5 µM | > 100 µM | 19.5 µM | > 48.6 µM | 
4 | C=C(C)C1Cc2c(cc(OC)c3c(=O)c4ccccc4n(C)c23)O1 (stereo not drawn) |  | > 100 µM | > 100 µM | > 100 µM | > 100 µM | > 100 µM |  | > 100 µM | > 100 µM | > 100 µM | > 100 µM | > 100 µM | > 100 µM
5 | CC1(C)CC(=O)C(CC2C(=O)c3ccccc3C2=O)C(=O)C1C(=O)C(=O)Nc1cccc2ccc(O)cc12 (stereo not drawn) | > 100 µM |  | > 100 µM | > 100 µM | > 100 µM | > 100 µM | > 100 µM |  | > 100 µM | > 100 µM | > 100 µM | 69.8 µM | > 100 µM
6 | COc1ccccc1NC(=O)CC(=O)n1nc(-c2ccccc2)c(N=Nc2ccccc2[N+](=O)[O-])c1-c1ccccc1 | > 100 µM | > 100 µM |  | > 100 µM | > 100 µM | > 100 µM |  | > 100 µM | > 100 µM | > 100 µM | > 100 µM |  | > 100 µM
7 | CC(=O)N1N=C(c2ccc3ccccc3c2O)CC1c1ccc(Cl)cc1Cl (stereo not drawn) | > 100 µM | > 100 µM | > 100 µM | > 100 µM | > 100 µM | > 100 µM | > 100 µM | > 100 µM | > 100 µM | > 100 µM | > 100 µM | > 100 µM | 
8 | O=C1CCCC(=O)N1n1c(Cc2ccc(Cl)cc2)n[nH]c1=O | > 100 µM | > 100 µM | > 100 µM | > 100 µM | > 100 µM | > 100 µM | > 100 µM |  | > 100 µM | > 100 µM | > 100 µM |  | > 100 µM
9 | O=C1CC(NCCCNC2CC(=O)c3c(Br)sc(Br)c32)c2c(Br)sc(Br)c21 (stereo not drawn) | 1.21 µM | 14 µM | 3.56 µM | 4.36 µM | 4.77 µM | 2.63 µM | 5.64 µM | > 100 µM | 3.86 µM |  | 6.04 µM |  | > 100 µM
10 | Cc1ccc(S(=O)(=O)Nn2c(C)cc3ccc(S(=O)(=O)Nc4ccccc4[N+](=O)[O-])cc3c2=O)cc1 | > 100 µM | > 100 µM | > 100 µM | > 100 µM | > 100 µM | > 100 µM | > 100 µM | > 100 µM | > 100 µM | > 100 µM |  |  | > 100 µM
11 | Nc1ncnc2c1ccn2CC=C(CO)CO | > 100 µM | > 100 µM | > 100 µM | > 100 µM | > 100 µM | > 100 µM | > 100 µM |  | > 100 µM | > 100 µM | > 100 µM | > 100 µM | > 100 µM
12 | COc1ccc(N2C(=O)C(C#N)=C(SC)C(C#N)C2=O)cc1 (stereo not drawn) | > 100 µM | > 100 µM | > 100 µM |  | > 100 µM | > 100 µM | > 100 µM |  | > 100 µM | > 100 µM | > 100 µM | > 100 µM | 
13 | C[C@]12CC[C@H]3[C@@H](CC=C4C[C@@H](O)CC[C@@]43C)[C@@H]1C[C@H](N1CCOCC1)[C@@H]2O | > 100 µM | > 100 µM | > 100 µM | > 100 µM | > 100 µM | > 100 µM | > 100 µM |  | > 100 µM | > 100 µM | > 100 µM | > 100 µM | > 100 µM
14 | O=C1CC(NC2CC(=O)c3c(Br)sc(Br)c32)c2c(Br)sc(Br)c21 (stereo not drawn) | > 100 µM | 12.2 µM | 9.2 µM | 28.3 µM | 3.42 µM | 2.9 µM | > 86.8 µM |  | 24.2 µM | 10.3 µM | 18.2 µM | 32.6 µM | 7.65 µM
15 | COC(=N)c1ncn(Cc2ccccc2)c1N |  | > 100 µM | > 100 µM | > 100 µM | > 100 µM | > 100 µM | > 100 µM |  | > 100 µM | > 100 µM | > 100 µM | > 100 µM | 
16 | CN(C)C=NCc1ccc2c(c1)OCO2 | > 100 µM | > 100 µM | > 100 µM | > 100 µM | > 100 µM | > 100 µM | > 100 µM | > 100 µM | > 100 µM | > 100 µM | > 100 µM | > 100 µM | 
17 | CN1C(=O)CN=C(c2ccccc2F)c2cc(N=C=S)ccc21 |  | > 100 µM | > 100 µM | > 100 µM | > 100 µM | > 100 µM | > 100 µM |  | > 100 µM | > 100 µM |  | > 100 µM | > 100 µM
18 | O=S(=O)(c1ccccc1)n1cnc(CCc2ccccc2)n1 | > 100 µM | > 100 µM | > 100 µM | > 100 µM | > 100 µM | > 100 µM |  | > 100 µM | > 100 µM | > 100 µM | > 100 µM | > 100 µM | > 100 µM
19 | CC(=O)OCC1=C2C(OC(=O)C(C)C)CC3(COC(C)=O)OC3/C=C\C3(C)OC3C2OC1=O (stereo not drawn) | > 100 µM | > 100 µM | > 100 µM | > 100 µM | > 100 µM | > 100 µM |  | > 100 µM | > 100 µM | > 100 µM | > 100 µM | > 100 µM | > 100 µM
20 | COc1ccc2[nH]c3c(C)c4ccnc(NCCCN(C)CCCN)c4c(C)c3c2c1 | > 100 µM | 0.385 µM | 1.47 µM | 0.87 µM | 0.257 µM | 0.39 µM | 2.09 µM | > 100 µM | 0.479 µM | 0.376 µM | 0.37 µM |  | 
